Results reported in ChEMBL document CHEMBL1201862, “PubChem BioAssay data set” (2004).
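1) Cells in 96-well plates. 2) Compound, 48 h, 5 concentrations. 3) Linear interpolation between surrounding doses. 4) Unreached endpoint = highest concentration. Here, GI50 denotes the concentration required for 50% inhibition of growth.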 Calls of active or inactive are those of the source. Rule as the data show it: active = GI50 up to about 1.1 µM and inactive = higher.

Legend:
Test in all cases: NCI tumour cell line growth inhibition, 48 h
[1] = tested on: OVCAR-4
[2] = tested on: SN12C
[3] = tested on: T47D
[4] = tested on: OVCAR-5
[5] = tested on: RPMI-8226
[6] = tested on: SF-295
[7] = tested on: SR
[8] = tested on: SK-MEL-2
[9] = tested on: SNB-19
[10] = tested on: OVCAR-8
[11] = tested on: KM12
[12] = tested on: Hs-578T
[13] = tested on: HOP-62
[14] = tested on: MOLT-4
[15] = tested on: HT-29
[16] = tested on: NCI-H460
[17] = tested on: TK-10
[18] = tested on: SK-MEL-5
[19] = tested on: DU-145
[20] = tested on: HCC 2998

| SMILES | GI50 [1] | GI50 [2] | GI50 [3] | GI50 [4] | GI50 [5] | GI50 [6] | GI50 [7] | GI50 [8] | GI50 [9] | GI50 [10] | GI50 [11] | GI50 [12] | GI50 [13] | GI50 [14] | GI50 [15] | GI50 [16] | GI50 [17] | GI50 [18] | GI50 [19] | GI50 [20] |
| --- | --- | --- | --- | --- | --- | --- | --- | --- | --- | --- | --- | --- | --- | --- | --- | --- | --- | --- | --- | --- |
| CCCCC(=O)OC[n+]1ccc2c(C)c3[nH]c4ccccc4c3c(C)c2c1 | 1.01 µM (active) | 0.376 µM (active) | 1.01 µM (active) | 0.525 µM (active) | 0.195 µM (active) | 0.676 µM (active) | 0.0895 µM (active) | 1.97 µM (inactive) | 0.466 µM (active) | 0.385 µM (active) | 0.446 µM (active) | 0.217 µM (active) | 0.537 µM (active) | 0.0775 µM (active) | 0.46 µM (active) | 0.0275 µM (active) | 1.21 µM (inactive) | 1.39 µM (inactive) | 1.04 µM (active) | 0.433 µM (active) |
| O=C(O)C1CC(C2CCCCN2)CN2CCCCC12 (stereo not given) | > 100 µM (inactive) | > 100 µM (inactive) | > 100 µM (inactive) | > 100 µM (inactive) | > 100 µM (inactive) | > 100 µM (inactive) | > 100 µM (inactive) | > 100 µM (inactive) | > 100 µM (inactive) | > 100 µM (inactive) | > 100 µM (inactive) | > 100 µM (inactive) | > 100 µM (inactive) | > 100 µM (inactive) | > 100 µM (inactive) | > 100 µM (inactive) | > 100 µM (inactive) | > 100 µM (inactive) | > 100 µM (inactive) | > 100 µM (inactive) |
| CCCCCCC(O)C(O)CCC(O)C1CCC(CCCCC(O)CC2=CC(C)OC2=O)O1 (stereo not given) [ACETOGENINS] | 17.5 µM (inactive) | 3.08 µM (inactive) | 3.13 µM (inactive) | 8.3 µM (inactive) | 7.41 µM (inactive) | 1.83 µM (inactive) | 1.69 µM (inactive) | 2.99 µM (inactive) | 2.74 µM (inactive) | 2.18 µM (inactive) | 2.15 µM (inactive) | 2.23 µM (inactive) | 3.81 µM (inactive) | 2.59 µM (inactive) | 2.33 µM (inactive) | 2.59 µM (inactive) | 8.09 µM (inactive) | 1.04 µM (active) | 6.19 µM (inactive) | 15.9 µM (inactive) |
| CCOC(=O)c1[nH]cc(C)c1-c1c[nH]c2ccccc12 | 41.5 µM (inactive) | 56 µM (inactive) | 36.3 µM (inactive) | 39.7 µM (inactive) | 7.35 µM (inactive) | 29 µM (inactive) | 1.82 µM (inactive) | 29.4 µM (inactive) | 24.9 µM (inactive) | 27.1 µM (inactive) | 42.6 µM (inactive) | 16.7 µM (inactive) | 35.3 µM (inactive) | 4.11 µM (inactive) | 21.6 µM (inactive) | 12.1 µM (inactive) | 19.5 µM (inactive) | 13.8 µM (inactive) | 45 µM (inactive) | 19.9 µM (inactive) |
| COC(=O)C1CCC(=O)N1CN(C(C)=O)c1ccccc1Cl (stereo not given) | > 100 µM (inactive) | > 100 µM (inactive) | > 100 µM (inactive) | > 100 µM (inactive) | > 100 µM (inactive) | > 100 µM (inactive) | > 100 µM (inactive) | > 100 µM (inactive) | > 100 µM (inactive) | > 100 µM (inactive) | > 100 µM (inactive) | > 100 µM (inactive) | > 100 µM (inactive) | > 100 µM (inactive) | > 100 µM (inactive) | > 100 µM (inactive) | > 100 µM (inactive) | > 100 µM (inactive) | > 100 µM (inactive) | > 100 µM (inactive) |
| COc1cc2cc(C(=O)N3CC(CCl)c4ccc(NCCN)cc43)[nH]c2c(OC)c1OC (stereo not given) | 0.263 µM (active) | 0.237 µM (active) | 0.301 µM (active) | 0.337 µM (active) | 0.153 µM (active) | 0.197 µM (active) | 0.0279 µM (active) | 0.179 µM (active) | 0.292 µM (active) | 0.167 µM (active) | 0.206 µM (active) | 0.472 µM (active) | 0.166 µM (active) | 0.0575 µM (active) | 0.145 µM (active) | 0.0658 µM (active) | 0.33 µM (active) | 0.116 µM (active) | 0.08 µM (active) | 0.146 µM (active) |
| [N-]=[N+]=Nc1c([N+](=O)[O-])c(=O)n(-c2ccccc2)c2ccccc12 | 18.3 µM (inactive) | 23.4 µM (inactive) | 29.1 µM (inactive) | > 100 µM (inactive) | 16 µM (inactive) | 27.9 µM (inactive) | 25.2 µM (inactive) | 17.9 µM (inactive) | 32.3 µM (inactive) | 20.1 µM (inactive) | 26.7 µM (inactive) | 20 µM (inactive) | 43.7 µM (inactive) | 21.4 µM (inactive) | 28.2 µM (inactive) | 30.6 µM (inactive) | 14.2 µM (inactive) | 24.2 µM (inactive) | 35.2 µM (inactive) | 61.5 µM (inactive) |
| O=C1NCC(CSc2nc3cc(C4CCCc5c4[nH]c4ccccc54)ccc3o2)N1 (stereo not given) | 32.2 µM (inactive) | 49.7 µM (inactive) | 25.8 µM (inactive) | 61.8 µM (inactive) | 22.4 µM (inactive) | 43.5 µM (inactive) | 14.7 µM (inactive) | 39.3 µM (inactive) | 53.7 µM (inactive) | 30.8 µM (inactive) | 56.4 µM (inactive) | 38.1 µM (inactive) | > 100 µM (inactive) | 15.2 µM (inactive) | 21.8 µM (inactive) | 72.3 µM (inactive) | 72.4 µM (inactive) | 28.5 µM (inactive) | 56 µM (inactive) | 95.1 µM (inactive) |
| CCn1c(=O)c2nc(SC)sc2n(-c2ccccc2)c1=S | > 100 µM (inactive) | 86.9 µM (inactive) | 55.7 µM (inactive) | > 100 µM (inactive) | 74.6 µM (inactive) | > 100 µM (inactive) | > 100 µM (inactive) | 28.6 µM (inactive) | 89.1 µM (inactive) | 68.7 µM (inactive) | 49.9 µM (inactive) | 40.3 µM (inactive) | > 100 µM (inactive) | 31.6 µM (inactive) | 47.2 µM (inactive) | 37.8 µM (inactive) | > 100 µM (inactive) | 39.4 µM (inactive) | > 100 µM (inactive) | > 100 µM (inactive) |
| CC(C)OC(=O)Nc1c([N+](=O)[O-])cc(C(F)(F)F)cc1[N+](=O)[O-] | > 100 µM (inactive) | > 91 µM (inactive) | > 100 µM (inactive) | > 100 µM (inactive) | > 100 µM (inactive) | 54.1 µM (inactive) | > 67.5 µM (inactive) | > 73.1 µM (inactive) | 41.1 µM (inactive) | 75.7 µM (inactive) | > 100 µM (inactive) | 35.1 µM (inactive) | 93.3 µM (inactive) | > 46.5 µM (inactive) | > 100 µM (inactive) | > 100 µM (inactive) | > 100 µM (inactive) | > 100 µM (inactive) | > 100 µM (inactive) | > 100 µM (inactive) |
